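Compound exposure: 48 hours, 5 concentrations, 96-well plates. GI50 marks 50% less growth.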 The source made the active and inactive calls. Rule as the data show it: active = GI50 up to about 1.1 µM and inactive = higher.
Legend:
Assay in all cases: NCI-60 cell line screen, 48 h
ACHN = tested on: ACHN
SF-539 = tested on: SF-539
A549 = tested on: A549
HCT-15 = tested on: HCT-15
COLO 205 = tested on: COLO 205
UO-31 = tested on: UO-31
M14 = tested on: M14
UACC-62 = tested on: UACC-62
HCT-116 = tested on: HCT-116
SW-620 = tested on: SW-620
HT-29 = tested on: HT-29
SF-268 = tested on: SF-268
OVCAR-4 = tested on: OVCAR-4
NCI-H23 = tested on: NCI-H23
HL-60 = tested on: HL-60
SK-MEL-2 = tested on: SK-MEL-2
SK-MEL-5 = tested on: SK-MEL-5

Structure (SMILES) | GI50 (ACHN) | GI50 (SF-539) | GI50 (A549) | GI50 (HCT-15) [µM] | GI50 (COLO 205) | GI50 (UO-31) | GI50 (M14) | GI50 (UACC-62) | GI50 (HCT-116) | GI50 (SW-620) | GI50 (HT-29) | GI50 (SF-268) | GI50 (OVCAR-4) | GI50 (NCI-H23) | GI50 (HL-60) | GI50 (SK-MEL-2) | GI50 (SK-MEL-5)
CC(C)(C)C1(O)Cc2ccccc2C(=O)O1 (stereo not drawn) | > 100 µM (inactive) | > 100 µM (inactive) | > 100 µM (inactive) | > 100 | > 100 µM (inactive) | > 100 µM (inactive) | > 100 µM (inactive) | > 100 µM (inactive) | > 100 µM (inactive) | > 100 µM (inactive) | > 100 µM (inactive) | > 100 µM (inactive) | > 100 µM (inactive) | > 100 µM (inactive) | > 100 µM (inactive) | > 100 µM (inactive) | > 100 µM (inactive)
CN(/N=C/c1ccnc2ccccc12)c1ccc([N+](=O)[O-])cc1[N+](=O)[O-] | > 100 µM (inactive) | 89.5 µM (inactive) | > 100 µM (inactive) | > 100 | > 100 µM (inactive) | > 100 µM (inactive) | > 100 µM (inactive) | > 100 µM (inactive) | – | > 100 µM (inactive) | > 100 µM (inactive) | > 100 µM (inactive) | > 100 µM (inactive) | 91.6 µM (inactive) | > 100 µM (inactive) | 28.6 µM (inactive) | > 100 µM (inactive)
C(/C=C/N1CCCC1)=C\c1nc(N2CCCC2)c2ccccc2n1 | 16.9 µM (inactive) | 18.3 µM (inactive) | 48.5 µM (inactive) | 16.4 | 14.4 µM (inactive) | 15.7 µM (inactive) | 18 µM (inactive) | 21.2 µM (inactive) | 19.7 µM (inactive) | 14.3 µM (inactive) | 20.7 µM (inactive) | 23.9 µM (inactive) | 13.9 µM (inactive) | 18.2 µM (inactive) | 23.4 µM (inactive) | 22.1 µM (inactive) | 19.1 µM (inactive)
Nc1ccc(C(=O)NN2C(=O)C(Cl)C2c2ccccc2O)cc1 (stereo not drawn) | 39.2 µM (inactive) | 85.9 µM (inactive) | 93.1 µM (inactive) | 35.2 | 43.2 µM (inactive) | 21.9 µM (inactive) | 24 µM (inactive) | 72.3 µM (inactive) | 60.5 µM (inactive) | 73.6 µM (inactive) | > 100 µM (inactive) | 70.1 µM (inactive) | 60.1 µM (inactive) | > 100 µM (inactive) | 1.15 µM (inactive) | > 100 µM (inactive) | 47.4 µM (inactive)
C/C=C/C=N/N(c1nnc(-c2ccccc2)c(-c2ccccc2)n1)S(=O)(=O)c1ccc(C)cc1 | 11.8 µM (inactive) | 11.5 µM (inactive) | 12 µM (inactive) | 5.14 | 17.1 µM (inactive) | 5.74 µM (inactive) | 4.69 µM (inactive) | 3.33 µM (inactive) | 8.09 µM (inactive) | 4.05 µM (inactive) | 11.7 µM (inactive) | 5.46 µM (inactive) | 13.2 µM (inactive) | 14 µM (inactive) | 2.33 µM (inactive) | 11.4 µM (inactive) | 8.22 µM (inactive)
CC(C)(C)OC(=O)Cc1ccc2c(ccn2Cc2ccccc2)c1 | > 100 µM (inactive) | 93.5 µM (inactive) | 48.8 µM (inactive) | 12.8 | 44.1 µM (inactive) | 37.9 µM (inactive) | > 100 µM (inactive) | 69 µM (inactive) | 25.2 µM (inactive) | 67.1 µM (inactive) | 17.2 µM (inactive) | 66.4 µM (inactive) | 83.6 µM (inactive) | 44.8 µM (inactive) | 28.2 µM (inactive) | > 100 µM (inactive) | 31.4 µM (inactive)
CC(=O)/C=C/c1ccc(C)cc1 | > 100 µM (inactive) | > 100 µM (inactive) | > 100 µM (inactive) | > 100 | > 100 µM (inactive) | > 100 µM (inactive) | > 100 µM (inactive) | > 100 µM (inactive) | > 100 µM (inactive) | > 100 µM (inactive) | > 100 µM (inactive) | > 100 µM (inactive) | > 100 µM (inactive) | > 100 µM (inactive) | > 100 µM (inactive) | > 100 µM (inactive) | > 100 µM (inactive)
Cn1c2c(c3ccccc31)CCN(CCCCN1CCN(c3cccc(Cl)c3)CC1)C2=O | 14.9 µM (inactive) | 12.8 µM (inactive) | 20.5 µM (inactive) | 11.6 | 2.91 µM (inactive) | 6.21 µM (inactive) | 3.3 µM (inactive) | 11.4 µM (inactive) | 6.65 µM (inactive) | 12.6 µM (inactive) | 2.79 µM (inactive) | 16.9 µM (inactive) | 14.9 µM (inactive) | 12.6 µM (inactive) | 3.67 µM (inactive) | 16.7 µM (inactive) | 10.1 µM (inactive)
CCOc1ccc(/N=N/c2ccc3oc(=O)c(C(=O)Nc4ccc(OC)cc4)cc3c2)cc1 | – | 20.2 µM (inactive) | 40.1 µM (inactive) | 6.12 | 47.9 µM (inactive) | 5.57 µM (inactive) | > 10 µM (inactive) | 11.7 µM (inactive) | 11.3 µM (inactive) | 18.5 µM (inactive) | 42.5 µM (inactive) | 9.1 µM (inactive) | 7.1 µM (inactive) | 19.7 µM (inactive) | 2.88 µM (inactive) | 18.6 µM (inactive) | 15 µM (inactive)
COC(=O)/C(C#N)=C1\NN=NN1CCCN1CCOCC1 | > 100 µM (inactive) | > 100 µM (inactive) | > 100 µM (inactive) | > 100 | > 100 µM (inactive) | > 100 µM (inactive) | > 100 µM (inactive) | > 100 µM (inactive) | > 100 µM (inactive) | > 100 µM (inactive) | > 100 µM (inactive) | – | – | > 100 µM (inactive) | – | – | > 100 µM (inactive)
O=C(O)CCC1CCc2cccc(OCC(=O)O)c2C1=O (stereo not drawn) | > 100 µM (inactive) | > 100 µM (inactive) | > 100 µM (inactive) | > 100 | > 100 µM (inactive) | – | > 100 µM (inactive) | > 100 µM (inactive) | > 100 µM (inactive) | > 100 µM (inactive) | > 100 µM (inactive) | – | > 100 µM (inactive) | > 100 µM (inactive) | > 100 µM (inactive) | – | > 100 µM (inactive)
O=C(O)CSc1nnc(-c2ccccc2)[nH]1 | > 100 µM (inactive) | > 100 µM (inactive) | > 100 µM (inactive) | > 100 | > 100 µM (inactive) | > 100 µM (inactive) | > 100 µM (inactive) | > 100 µM (inactive) | – | > 100 µM (inactive) | > 100 µM (inactive) | > 100 µM (inactive) | > 100 µM (inactive) | > 100 µM (inactive) | > 100 µM (inactive) | > 100 µM (inactive) | > 100 µM (inactive)
O=C(/C=C/c1ccccc1O)c1cccnc1 | > 100 µM (inactive) | > 100 µM (inactive) | > 100 µM (inactive) | – | – | > 100 µM (inactive) | > 100 µM (inactive) | > 100 µM (inactive) | > 100 µM (inactive) | > 100 µM (inactive) | > 100 µM (inactive) | > 100 µM (inactive) | > 100 µM (inactive) | 51.3 µM (inactive) | > 100 µM (inactive) | > 100 µM (inactive) | > 100 µM (inactive)
O=S(=O)(O)c1ccc(-c2c3nc(c(-c4ccc(S(=O)(=O)O)cc4)c4ccc([nH]4)c(-c4ccc(S(=O)(=O)O)cc4)c4nc(c(-c5ccc(S(=O)(=O)O)cc5)c5ccc2[nH]5)C=C4)C=C3)cc1 | 86.3 µM (inactive) | > 100 µM (inactive) | 55 µM (inactive) | > 100 | > 100 µM (inactive) | 19.5 µM (inactive) | 90.6 µM (inactive) | > 100 µM (inactive) | > 100 µM (inactive) | > 100 µM (inactive) | > 100 µM (inactive) | 92.5 µM (inactive) | 45.6 µM (inactive) | 58.1 µM (inactive) | – | 27.1 µM (inactive) | > 100 µM (inactive)
CCc1cccc(C)c1NC(=O)CC1Sc2ccccc2NC1=O (stereo not drawn) | 40.8 µM (inactive) | 31.9 µM (inactive) | 44.2 µM (inactive) | 39.3 | 53.7 µM (inactive) | 30.1 µM (inactive) | 39.4 µM (inactive) | 46.9 µM (inactive) | 34.3 µM (inactive) | 37.8 µM (inactive) | – | 50.7 µM (inactive) | 75.3 µM (inactive) | 38 µM (inactive) | 18.1 µM (inactive) | 33.6 µM (inactive) | 23.4 µM (inactive)
Oc1nc(S)nc2c1CCCN2 | > 100 µM (inactive) | – | > 100 µM (inactive) | > 100 | > 100 µM (inactive) | > 100 µM (inactive) | > 100 µM (inactive) | > 100 µM (inactive) | > 100 µM (inactive) | > 100 µM (inactive) | > 100 µM (inactive) | > 100 µM (inactive) | – | > 100 µM (inactive) | > 100 µM (inactive) | > 100 µM (inactive) | > 100 µM (inactive)
COc1ccc2c(c1)CC1c3c(cc4c(c3-2)OCO4)CCN1C (stereo not drawn) | 16.9 µM (inactive) | 31.3 µM (inactive) | 21.4 µM (inactive) | 36.9 | 15.8 µM (inactive) | 14 µM (inactive) | 22.8 µM (inactive) | 21.6 µM (inactive) | 19.5 µM (inactive) | 19.5 µM (inactive) | 27.7 µM (inactive) | > 10 µM (inactive) | 23.1 µM (inactive) | 23.8 µM (inactive) | – | 26.5 µM (inactive) | 16.9 µM (inactive)
CC(C)=CCCc1c(C)ccc2c1C(=O)C(=O)C(C(C)C)=C2 | 3.8 µM (inactive) | 4.27 µM (inactive) | > 22 µM (inactive) | 3.85 | 7.24 µM (inactive) | 6.98 µM (inactive) | 4.24 µM (inactive) | – | 3.57 µM (inactive) | 3.86 µM (inactive) | 7.11 µM (inactive) | 5.71 µM (inactive) | 3.84 µM (inactive) | 3.94 µM (inactive) | 1.03 µM (active) | 4.1 µM (inactive) | 20 µM (inactive)

— ChEMBL document CHEMBL1201862, “PubChem BioAssay data set” (2004)
